Assay results from ChEMBL document CHEMBL1143678, “Self-assembling cannabinomimetics: supramolecular structures of N-alkyl amides” (J Nat Prod, 2007).

Target: Cannabinoid receptor 2 (Homo sapiens, UniProt P34972)
Test: Displacement of [3H]CP-55940 from CB2 receptor expressed in HEK cells
Format: cell-based, HEK293

Sequence of Cannabinoid receptor 2 (P34972 whole entry): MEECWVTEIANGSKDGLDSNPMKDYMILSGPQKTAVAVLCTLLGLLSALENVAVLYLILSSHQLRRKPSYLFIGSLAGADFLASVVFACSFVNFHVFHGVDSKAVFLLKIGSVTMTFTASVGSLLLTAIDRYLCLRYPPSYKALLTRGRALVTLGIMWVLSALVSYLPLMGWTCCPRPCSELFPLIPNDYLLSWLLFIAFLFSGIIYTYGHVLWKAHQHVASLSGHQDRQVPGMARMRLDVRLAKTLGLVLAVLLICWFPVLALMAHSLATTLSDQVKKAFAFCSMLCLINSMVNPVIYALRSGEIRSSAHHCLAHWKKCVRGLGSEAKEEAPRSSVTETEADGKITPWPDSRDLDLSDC

Ki: 52 nM
SMILES: CCCCCCC/C=C/C=C/C(=O)NCC(C)C
